US20080268041A1, “COMBINATION OF PROGESTERONE-RECEPTOR ANTAGONIST TOGETHER WITH NONE-STEROIDAL ANTIESTROGEN FOR USE IN BRCA MEDIATED DISEASES” (priority 2007, published 2008)

Tests used:
[1] = system: Brca1/p53-deficient mice mammary tumors; settings: BRCA1- or BRCA2 inactivated in mammary glands; Poole et al., Science 2006; cited from earlier work
[2] = system: NMU-induced rat mammary carcinomas; assay: NMU-induced mammary tumor model in female rats, 4 weeks treatment; type: in vivo, female Sprague-Dawley rats; settings: for Median tumor weight: 1 mg/kg p.o. daily for 4 weeks (combination 1 + 1 mg/kg), of 10 animals, control 15200, ovariectomy 0; for Tumor growth inhibition compared to control (procentual change of tumor area): 1 mg/kg p.o. each, 4 weeks, Kruskal-Wallis-test
Experimental: Tumors were induced by a single intravenous injection of NMU (50 mg/kg) in female Sprague-Dawley rats (Tierzucht Schönwalde, age 50-55 days). Rats with at least one established tumor with a size of minimal 150 mm^2 were treated for 4 weeks by
1) Solvent control, 2) Ovariectomy (at treatment start), 3) The progesterone receptor antagonist 11β-(4-acetylphenyl)-17β-hydroxy-17α(1,1,2,2,2-pentafluoroethyl)-estra-4,9-dien-3-one, 1 mg/kg p.o., 4) Tamoxifen, 1 mg/kg p.o., 5) The progesterone receptor antagonist 11β-(4-acetylphenyl)-17β-hydroxy-17α(1,1,2,2,2-pentafluoroethyl)-estra-4,9-dien-3-one, 1 mg/kg p.o. and Tamoxifen, 1 mg/kg p.o. daily.
As parameter for growth inhibition the procentual change of tumor area determined by weekly caliper measurements was used. For statistical analysis of intergroup differences of mean values the Kruskal-Wallis-test was used.

[3] = system: MCF-10 mammary cells with BRCA1 and BRCA2 knock down; assay: Growth of MCF-10 mammary cells with siRNA knock down of BRCA1 and BRCA2, stimulated with progesterone and/or estrogens; type: cell-based; settings: co-treatment, in the presence of progesterone
Experimental: MCF-10 mammary cells obtained from ATCC were treated with siRNA knocking down the BRCA1 and BRCA2 gene.
(§1) Cell growth in comparison to untransfected and mock transfected cells was compared. In a second step cells were stimulated either with progesterone and/or with estrogens. […] The effects on progesterone receptor protein expression were further investigated.

[4] = target: T1, progesterone receptor (Homo sapiens, UniProt P06401); assay: Progesterone receptor protein expression/stability after siRNA knock down of BRCA1; type: cell-based
T1 sequence (P06401 1-933): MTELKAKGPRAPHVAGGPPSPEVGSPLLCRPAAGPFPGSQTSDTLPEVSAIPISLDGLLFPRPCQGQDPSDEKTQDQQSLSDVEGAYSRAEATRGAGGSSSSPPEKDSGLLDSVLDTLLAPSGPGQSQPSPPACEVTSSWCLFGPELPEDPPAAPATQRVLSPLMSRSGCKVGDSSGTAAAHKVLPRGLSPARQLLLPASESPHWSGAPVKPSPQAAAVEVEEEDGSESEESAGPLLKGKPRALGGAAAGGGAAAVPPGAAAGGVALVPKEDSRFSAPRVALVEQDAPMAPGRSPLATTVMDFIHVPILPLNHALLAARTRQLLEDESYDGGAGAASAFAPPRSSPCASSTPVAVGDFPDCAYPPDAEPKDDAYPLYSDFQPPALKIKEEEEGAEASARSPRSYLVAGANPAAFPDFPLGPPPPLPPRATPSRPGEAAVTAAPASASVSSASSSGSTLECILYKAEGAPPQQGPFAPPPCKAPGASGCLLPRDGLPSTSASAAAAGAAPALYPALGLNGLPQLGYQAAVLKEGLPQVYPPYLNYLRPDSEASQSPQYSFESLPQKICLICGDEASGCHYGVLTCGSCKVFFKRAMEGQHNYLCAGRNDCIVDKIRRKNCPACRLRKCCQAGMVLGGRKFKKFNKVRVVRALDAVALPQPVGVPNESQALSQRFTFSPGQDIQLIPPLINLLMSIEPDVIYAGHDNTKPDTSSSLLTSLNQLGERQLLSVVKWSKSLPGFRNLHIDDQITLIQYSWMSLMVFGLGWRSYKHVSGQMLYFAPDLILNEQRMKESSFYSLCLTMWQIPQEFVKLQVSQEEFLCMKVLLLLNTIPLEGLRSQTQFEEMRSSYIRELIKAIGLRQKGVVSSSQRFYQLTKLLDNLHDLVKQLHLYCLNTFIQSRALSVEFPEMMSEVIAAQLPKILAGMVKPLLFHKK
Text: as §1

[5] = target: T1, progesterone receptor; settings: Fuhrmann et al., J. Med. Chem. 2000; cited from earlier work

Compound	Development of mammary tumors in mice [1]	Median tumor weight [2] [mg]	Tumor growth inhibition compared to control (procentual change of tumor area) [2]	Growth/proliferation of BRCA1 knock down cells [3]	Increased stability of progesterone receptor after BRCA1 knock down [4]	Antiprogestagenic activity [5]
CC#C[C@]1(O)CC[C@H]2[C@@H]3CCC4=CC(=O)CCC4=C3[C@@H](c3ccc(N(C)C)cc3)C[C@@]21C [mifepristone]	blocks the development of mammary tumors	–	–	–	–	–
CC(=O)c1ccc([C@H]2C[C@@]3(C)[C@@H](CC[C@@]3(O)C(F)(F)C(F)(F)F)[C@@H]3CCC4=CC(=O)CCC4=C32)cc1 [11β-(4-acetylphenyl)-17β-hydroxy-17α-(1,1,2,2,2-pentafluoroethyl)-estra-4,9-dien-3-one]	–	1800	not significant different to the untreated control group	able to antagonize the effects of BRCA1 knock down	could be antagonized	high antiprogestagenic activity
CC/C(=C(\c1ccccc1)c1ccc(OCCN(C)C)cc1)c1ccccc1 [Tamoxifen, reference compound]	–	2950	not significant different to the untreated control group	–	–	–
